Four compounds from patent US9261497B2, “Method of treating cancer with modulators of SCFSkp2” (New York University, priority 2012, dated 2016) can be followed below.

Data set [1] concerns the target T1, CyclinE/CDK2 (Homo sapiens, UniProt P24941).
T1 construct: purchased Sigma-Aldrich
The data set can be described thus: CyclinE/CDK2 kinase assay (phospho-T187 p27). The class given is biochemical. Conditions: 50 μM inhibitor. As to the method:
In vitro ubiquitylation assays were incubated with anti-HA affinity matrix (Roche) in IP buffer (50 mM Tris pH 7.6, 150 mM NaCl, 0.1% NP40, and Roche Complete EDTA-free protease tablet) for 16 h at 4° C. Beads were washed 3× with IP buffer and eluted with 2×SDS Sample Buffer (Boston Bioproducts) and 10% Beta-mercaptoethanol. For binding without ubiquitylation, HA-Skp2 IVT (10 μl) and Cks1 IVT (10 μl) were preincubated with anti-HA affinity matrix in IP buffer for 2 hours, with the addition of p27 kinase reaction (10 μl) for another 16 h incubation at 4° C. All reactions were analyzed after SDS/PAGE by western blotting. Where indicated, Skp2 and Cks1 were pretreated with 10 μM inhibitors for 30 minutes. Kinase reactions were performed with p27 IVT (10 μl) and 0.5 μg/ul CyclinE/CDK2 in kinase buffer (50 mM Tris HCL pH 7.5, 10 mM MgCl2, 2 mM ATP, 2.5 μM Okadaic Acid, and 0.6 mM DTT) at 30° C. for 1 h.

The target of data set [2] is T2, Ubc3 (Homo sapiens, UniProt P49427).
T2 construct: purchased Boston Biochem
T2 sequence (P49427 1-236): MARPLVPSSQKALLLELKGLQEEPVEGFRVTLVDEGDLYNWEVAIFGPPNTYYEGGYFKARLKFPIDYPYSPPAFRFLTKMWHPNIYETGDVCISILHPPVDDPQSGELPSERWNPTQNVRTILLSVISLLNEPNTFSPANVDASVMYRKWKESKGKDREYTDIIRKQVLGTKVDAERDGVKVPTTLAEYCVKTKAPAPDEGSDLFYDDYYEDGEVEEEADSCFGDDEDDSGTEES
The data set is described as follows: E2 ubiquitin charging (Ubc3~Ub conjugates). As to conditions: 50 μM inhibitor. The class given is biochemical. As to the method:
In vitro reconstituted assays were performed as previously described (Dorrello et al., “S6K1- and betaTRCP-mediated Degradation of PDCD4 Promotes Protein Translation and Cell Growth,” Science 314:467-471 (2006), which is hereby incorporated by reference in their entirety) with the exceptions of the use of (1) unlabeled proteins (wild-type and mutant Skp2 and Cks1, p27, Flag-βTrCP, and HA-PDCD4) generated by in vitro transcription-translation (TNT T7 Coupled Reticulocyte Lysate System, Promega); (2) chain elongation with non-methylated ubiquitin; and (3) immunoblotting to detect poly-ubiquitylation. The following reagents were obtained from Boston Biochem: UBE1, His-UbcH3, His-UbcH5c, Ubiquitin, and Ubiquitin Aldehyde. Additional reagents include CDK2/CyclinE1 (Sigma-Aldrich), S6K (Invitrogen), Okadaic acid (Sigma), and DMSO (Sigma-Aldrich). […] Reactions were stopped in nondenaturing 2× Sample Buffer, with the addition of 10% Beta-mercaptoethanol as indicated, and analyzed by Western blotting.

Data set [3] has as its system p27 in 501 Mel, SK-MEL-147, and SK-MEL-173. The data set is described as follows: Immunoblot of steady state protein levels in metastatic melanoma cell lines. As to conditions: 10 μM inhibitor; melanoma cells. The class given is cell-based, human. The procedure: 501 Mel cells were also treated with MG-132 (a proteasome inhibitor) to confirm that p27 and p21 induction were responsive to known UPS inhibitors (FIG. 4A, right). […] Thus, treatment of cells with inhibitors targeting the Skp2-Cks1 interface induces protein levels of specific Skp2-Cks1 substrates.
(§1) Whole cell extracts were prepared and immunoblotted as previously described Dorrello et al., “S6K1- and betaTRCP-mediated Degradation of PDCD4 Promotes Protein Translation and Cell Growth,” Science 314:467-471 (2006), which is hereby incorporated by reference in its entirety. For knockdown of Skp2 or p27, shRNAs were induced with 2 ng/ml doxycycline for 48 hours, with the last 16 hours co-treated with 0.1% Vehicle or 10 μM inhibitors as indicated. For cycloheximide chase, cells were pretreated 16 h with 0.1% Vehicle or 10 μM inhibitors, followed by 20 ng/ml cycloheximide (Sigma) and whole cell extracts collected for each time point. […] Scanning densitometry was performed on immunoblots using Image J software. For cell cycle analysis, cells were treated with 0.1% Vehicle or 10 μM inhibitors for 16 h. 1×10^6 cells were fixed in 70% ethanol for 2 h, treated with 200 μg/ml RNase A (Invitrogen) for 30 minutes, and stained with 20 μg/ml Propidium Iodine (Sigma). All samples were assayed in triplicates. Signal was detected using the Becton Dickson LSRII flow cytometer and cell cycle profiles were analyzed with FloJo.

Data set [4] concerns 501 Mel cells. The data set can be described thus: Cell cycle FACS analysis, 501 Mel. Type of data set: cell-based, human. Conditions: shEmpty 501 Mel; 10 μM for 16 hours. The procedure: as §1
For data set [5], the system named is Caspase 3 in ECC-1 cells. The data set is described as follows: ECC-1 apoptosis (Caspase 3 cleavage immunoblot). Type of data set: cell-based, human. Conditions: 10 μM, 18 h. As to the method: Whole cell lysates were prepared in ice cold RIPA buffer (50 mM Tris-HCL, 150 mM NaCl, 0.25% sodium deoxycholate, 1% NP-40 and 1 mM EDTA) containing 1 mM Na3VO4, pH 7.4) and 1× Protease Inhibitor Cocktail (Sigma Chem, St Louis, Mo.). Following freezing and thawing once, and soluble proteins obtained by centrifugation at 14,000×g for 10 min at 4° C. Protein concentrations were quantified (BCA kit, Thermo Scientific, Rockland, Ill.) and 20 μg protein in Laemmli buffer were subjected to SDS-PAGE (12.5% polyacrylamide) and immunoblotted using anti-p27 and anti-Skp2 antibodies to probe protein levels, as described (Lecanda et al., “TGFbeta Prevents Proteasomal Degradation of the Cyclin-dependent Kinase Inhibitor p27kip1 for Cell Cycle Arrest,” Cell Cycle 8:742-756 (2009), which is hereby incorporated by reference in its entirety). For subcellular fractionation, following treatments, cells were separated into nuclear and cytoplasmic fractions using the NE-PER kit (Thermo Scientific), and 10 μg cytoplasmic and nuclear protein fractions were loaded onto SDS-PAGE for immunoblotting. Following protein transfer onto nitrocellulose membranes, the membrane was blocked with 5% non-fat dry milk in TBS containing 0.1% Tween 20 (TBST) for 1 h, incubated overnight with mouse anti-human p27 (1:1000, Clone 57, BD Transduction Labs) or mouse anti-human p45/Skp2 (1:1000, Clone 8D9, Invitrogen, Grand Island, N.Y.) or rabbit anti-human Caspase-3 antibody (1:500, Clone 8G10, Cell Signaling Technology (Danvers, Mass.)). Purity of the subcellular fractions was confirmed using mouse anti-human α-tubulin (1:10,000, Clone B-5-1-2, Sigma) for cytoplasmic or rabbit anti-human Sp1 (1:1000, Clone H-225, Santa Cruz Biotechnology, Santa Cruz, Calif.) for nuclear fractions. The membranes were incubated with peroxidase-conjugated goat anti-rabbit or goat anti-mouse secondary antibodies in TBST (1:2000; Thermo Scientific).

Turning to `O=C(NN=Cc1cc(Br)cc(Br)c1O)C(=Cc1ccccc1O)NC(=O)c1ccccc1` [Compound C20], the “CyclinE/CDK2 activity (phospho-T187 p27)” value in data set [1] is given as “not blocked”. The “E2 charging (Ubc3~Ub)” value in data set [2] is “unaffected”. For the same compound, the p27 protein induction result in data set [3] is “induce p27 protein”. Also, in data set [4], the S phase cells entry is “a decrease in S phase cells”. Also, the “Caspase 3 cleavage (apoptosis)” value in data set [5] is “activate caspase 3 to a similar extent as the control”.

In the case of `COC(=O)C1=C(C)N(c2ccc(Br)cc2)C(=O)C1=Cc1ccccc1O` [Compound C2], the “CyclinE/CDK2 activity (phospho-T187 p27)” value in data set [1] is reported as “not blocked”. Further, the “E2 charging (Ubc3~Ub)” value in data set [2] was “unaffected”. The p27 protein induction result in data set [3] is recorded as “induce p27 protein”. In addition, in data set [4], the S phase cells result was “a decrease in S phase cells”. Besides, the “Caspase 3 cleavage (apoptosis)” value in data set [5] was “activate caspase 3 to a similar extent as the control”.

Consider `O=C(O)COc1ccc(Br)cc1C=C1SC(=S)N(Cc2cccnc2)C1=O` [Compound C1], for which the “CyclinE/CDK2 activity (phospho-T187 p27)” value in data set [1] is recorded as “not blocked”. For the same compound, in data set [2], the “E2 charging (Ubc3~Ub)” value was “unaffected”. The p27 protein induction result in data set [3] is on record as “induce p27 protein”. Further, the S phase cells entry in data set [4] is recorded as “a decrease in S phase cells”.

As for `O=C(O)COc1ccc(C=C2SC(=O)N(CC(=O)c3ccc(Cl)cc3)C2=O)cc1` [Compound C16], the “CyclinE/CDK2 activity (phospho-T187 p27)” value in data set [1] is recorded as “not blocked”. Further, the “E2 charging (Ubc3~Ub)” value in data set [2] was “unaffected”. The p27 protein induction entry in data set [3] is “induce p27 protein”. Further, in data set [4], the S phase cells entry was “a decrease in S phase cells”. The “Caspase 3 cleavage (apoptosis)” value in data set [5] is given as “shows cleavage of caspase 3”.
